Assay results published in BindingDB's records for doi:10.7270/Q28G8J4C (Broad Institute, 2009).
Structures can show the parent of a compound that is named as a salt.

Target: T1, POsterior Segregation (Caenorhabditis elegans, UniProt G5EF15)
T1 sequence (G5EF15 whole entry): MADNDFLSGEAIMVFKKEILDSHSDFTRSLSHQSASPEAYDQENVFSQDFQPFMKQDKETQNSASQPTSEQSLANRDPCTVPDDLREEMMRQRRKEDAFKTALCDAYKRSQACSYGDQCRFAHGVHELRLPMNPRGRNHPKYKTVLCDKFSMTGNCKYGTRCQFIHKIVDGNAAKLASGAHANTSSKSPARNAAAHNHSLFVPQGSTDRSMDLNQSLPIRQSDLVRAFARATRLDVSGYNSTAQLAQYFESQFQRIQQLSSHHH
Test: disruptors of C. elegans POS-1 RNA interaction – biochemical, fluorescence polarization, dose response (AID 1964)

Compound | EC50
COc1ccc(C=C2CCCC(C(=O)C(F)(F)F)C2=O)cc1OC (stereo not given) [(2E,6Z)-2-(3,4-dimethoxybenzylidene)-6-(2,2,2-trifluoro-1-hydroxyethylidene)cyclohexanone] | > 300 µM
COc1cc(C2C3=C(CCCC3=O)OC(=N)C2C#N)cc(OC)c1OC(=O)N1CCOCC1 (stereo not given) [4-(2-amino-3-cyano-5-oxo-5,6,7,8-tetrahydro-4H-chromen-4-yl)-2,6-dimethoxyphenyl morpholine-4-carboxylate] | > 300 µM
COc1cc(CN=Nc2[nH]c(=O)nnc2C)ccc1O [5-[2-[(E)-(3-methoxy-4-oxocyclohexa-2,5-dien-1-ylidene)methyl]hydrazinyl]-6-methyl-2H-1,2,4-triazin-3-one] | 56.8 µM
Cc1ccc(NC=C2SC(=O)c3ccccc32)c(C)c1 [(3Z)-3-[(2,4-dimethylanilino)methylene]isobenzothiophen-1-one] | > 300 µM
Cc1cc(CN=Nc2ccc([N+](=O)[O-])cn2)c(C)n1-c1cccc(C(=O)O)c1 [3-[2,5-dimethyl-3-[[(5-nitro-2-pyridinyl)hydrazinylidene]methyl]-1-pyrrolyl]benzoic acid] | > 300 µM
O=[N+]([O-])c1ccc(/N=N/c2ncc[nH]2)cc1 [N-(imidazol-2-ylideneamino)-4-nitroaniline] | 69.1 µM
O=CC(C=Nc1ccccn1)c1nc2cc(Cl)ccc2o1 (stereo not given) [(Z)-2-(5-chloranyl-1,3-benzoxazol-2-yl)-3-(pyridin-2-ylamino)prop-2-enal] | 67.7 µM
N#CC1C(=N)OC2=C(C(=O)CCC2)C1c1ccc2c(c1)OCO2 (stereo not given) | > 300 µM
C/N=c1\ccc2nc3ccccc3n(C)c-2c1 [N,10-dimethyl-2-phenazin-10-iumamine;perchlorate] | 20.5 µM
COc1ccc(N=CCC(=O)c2ccc(C)cc2)cc1OC [SMR000269732] | > 300 µM
CN1CCC2(CC1)C(C#N)C(=N)NC(=S)C2C#N (stereo not given) [SMR000211480] | 8.05 µM
CN1CCC2=C(C#N)C(=N)C(C#N)(C#N)[C@H](c3cccc(Cl)c3)C2C1 (stereo partly drawn) [(8S)-6-amino-8-(3-chlorophenyl)-2-methyl-1,3,8,8a-tetrahydroisoquinoline-5,7,7-tricarbonitrile] | 12.5 µM
Cc1c(NC=C2C(=O)NC(=O)N(Cc3ccccc3)C2=O)c(=O)n(-c2ccccc2)n1C [(5E)-1-benzyl-5-[[(1,5-dimethyl-3-oxo-2-phenylpyrazol-4-yl)amino]methylidene]-1,3-diazinane-2,4,6-trione] | > 300 µM
Cc1ncc(CO)c(CNNC(=O)C2=CC(=O)C(=O)C(=O)C2)c1O [3,4,5-trihydroxy-N'-{(1E)-[3-hydroxy-5-(hydroxymethyl)-2-methylpyridin-4-yl]methylene}benzohydrazide] | 71.2 µM
N#CC1=C2CCOCC2C(c2cccnc2)C(C#N)(C#N)C1=N (stereo not given) [6-Amino-8-pyridin-3-yl-8,8a-dihydro-1H,3H-isochromene-5,7,7-tricarbonitrile] | > 300 µM
Cc1cc(C(=O)NN=CC2C=C(Cl)C=C([N+](=O)[O-])C2=O)[nH]n1 (stereo not given) [SMR000414694] | > 300 µM
COc1cc(C2C3=C(CC(C)(C)CC3=O)OC(=N)C2C#N)cc2c1OCO2 (stereo not given) | > 300 µM
CC1(C)c2[nH]c3ccccc3c2Cc2c(O)n(-c3ccc(F)cc3F)c(=O)n21 [MLS001065879] | > 300 µM
Oc1ccc(CN=Nc2ncnc3nc[nH]c23)cc1 [SMR000320358] | > 300 µM
O=C(Cc1nc2cc(Cl)ccc2oc1=O)c1ccco1 [(3Z)-6-chloranyl-3-[2-(furan-2-yl)-2-oxidanylidene-ethylidene]-4H-1,4-benzoxazin-2-one] | > 300 µM
CC(N=Nc1ccc(Cl)c(C(=O)O)c1)c1ccc[nH]1 (stereo not given) [2-chloro-5-[2-[(1Z)-1-pyrrol-2-ylideneethyl]hydrazinyl]benzoic acid] | > 300 µM
CN(C)[C@@H]1C(=O)C(C(N)=O)C(=O)[C@@]2(O)C(=O)C3C(=O)c4c(O)cccc4[C@@](C)(O)[C@H]3[C@H](O)[C@@H]12 (stereo partly drawn) [(2E,4S,4aR,5S,5aR,6S,12aS)-2-[azanyl(oxidanyl)methylidene]-4-(dimethylamino)-6-methyl-5,6,10,11,12a-pentakis(oxidanyl)-4,4a,5,5a-tetrahydrotetracene-1,3,12-trione] | 65.8 µM
COc1ccccc1N1C(=O)C(=Nc2ccccc2O)C(Cl)C1=O (stereo not given) [3-chloranyl-4-[(2-hydroxyphenyl)amino]-1-(2-methoxyphenyl)pyrrole-2,5-dione] | 34.7 µM
COc1ccc(N=C(C(=C(Cl)C(Cl)Cl)[N+](=O)[O-])n2nnc3ccccc32)cc1 [N-[(1E)-1-(1-benzotriazolyl)-3,4,4-trichloro-2-nitrobuta-1,3-dienyl]-4-methoxyaniline] | 88.5 µM
CN(C)c1ccc(NC=C2C(=O)NC(=O)N(CCC3=CCCCC3)C2=O)cc1 [(5Z)-1-[2-(cyclohexen-1-yl)ethyl]-5-[[[4-(dimethylamino)phenyl]amino]methylidene]-1,3-diazinane-2,4,6-trione] | > 300 µM

Compound | EC50
CC1CCC2=C(C#N)C(=N)C(C#N)(C#N)C(c3cccs3)C2C1 (stereo not given) [2-amino-6-methyl-4-(2-thienyl)-4a,5,6,7-tetrahydro-4H-naphthalene-1,3,3-tricarbonitrile] | 21.7 µM
O=C1NC(=O)N(c2ccc(F)cc2)C(=O)C1=Cc1c[nH]c2ccccc12 [SMR000556295] | 52.2 µM
O=C(c1ccccc1)c1[nH]n(-c2ccccc2)c2c(O)n(-c3ccccc3Cl)c(=O)c1-2 [SMR000212371] | > 300 µM
c1ccc(C2=NNC(c3ccccn3)N=N2)nc1 (stereo not given) [SMR000549436] | 25.3 µM
CC1(C)CC(=O)C2=C(C1)OC(=N)C(C#N)C21C(=O)N(CN2CCOCC2)c2ccccc21 (stereo not given) [2-amino-2',5-diketo-7,7-dimethyl-1'-(morpholinomethyl)spiro[6,8-dihydrochromene-4,3'-indoline]-3-carbonitrile] | > 300 µM
N#CC1=C2CCCCC2C(c2cccnc2)C(C#N)(C#N)C1=N (stereo not given) [2-amino-4-(3-pyridinyl)-4a,5,6,7-tetrahydro-4H-naphthalene-1,3,3-tricarbonitrile] | 22.2 µM
O=C1C([N+](=O)[O-])=CC(Cl)=CC1/C=N/NC(=O)C(O)(c1ccccc1)c1ccccc1 (stereo not given) [N''''-[(E)-(3-chloro-5-nitro-6-oxocyclohexa-2,4-dien-1-ylidene)methyl]-2-hydroxy-2,2-diphenylacetohydrazide] | > 300 µM
C[C@H]1c2cccc(O)c2C(=O)C2C(=O)[C@]3(O)C(=O)C(C(N)=O)C(=O)[C@@H](N(C)C)C3C(O)C21 (stereo partly drawn) [(2Z,4S,5S,6R,12aS)-2-[amino(hydroxy)methylidene]-4-(dimethylamino)-5,10,11,12a-tetrahydroxy-6-methyl-4a,5,5a,6-tetrahydro-4H-tetracene-1,3,12-trione;ethanol;hydrate;hydrochloride] | > 300 µM
C=c1c(C(=O)OC)c(O)c(=Cc2ccco2)n1-c1ccccc1 [MLS000780287] | 99 µM
COc1ccccc1OCC(=O)NN=Cc1c(O)ccc2ccccc12 | 228 µM
O=C(N/N=C/C1C=C(Cl)C=C([N+](=O)[O-])C1=O)c1ccc2c(c1)OCO2 (stereo not given) [N'-[(E)-(3-chloranyl-5-nitro-6-oxidanylidene-cyclohexa-2,4-dien-1-ylidene)methyl]-1,3-benzodioxole-5-carbohydrazide] | 127 µM
CCCCOC(=O)c1ccc(NN=C2C(=O)NC(=O)C(C#N)=C2C)cc1 [MLS000778379] | > 300 µM
C=CCSc1nnc(N2C(=O)C(=O)C(C(=O)c3ccco3)C2c2ccccc2F)s1 (stereo not given) [1-[5-(allylthio)-1,3,4-thiadiazol-2-yl]-5-(2-fluorophenyl)-4-(2-furoyl)-3-hydroxy-3-pyrrolin-2-one] | 48.3 µM
CC1(C)CC(=O)C2=C(C1)OC(=N)C(C#N)C2c1ccc(OC(=O)N2CCOCC2)cc1 (stereo not given) [4-morpholinecarboxylic acid [4-(2-amino-3-cyano-7,7-dimethyl-5-oxo-6,8-dihydro-4H-1-benzopyran-4-yl)phenyl] ester] | > 300 µM
N#CC1C(=N)OC2=C(C(=O)CCC2)C1c1cc2c(cc1Br)OCO2 (stereo not given) [2-azanyl-4-(6-bromanyl-1,3-benzodioxol-5-yl)-5-oxidanylidene-4,6,7,8-tetrahydrochromene-3-carbonitrile] | > 300 µM
Cc1ccc(-c2c(CCC(C)N=O)oc3ccc(Cl)cc23)o1 (stereo not given) [4-[5-chloro-3-(5-methyl-2-furanyl)-2-benzofuranyl]-2-butanone oxime] | > 300 µM
Cc1ccc(N=CC2Sc3ccccc3NC2=O)cc1 (stereo not given) [(2E)-2-(p-toluidinomethylene)-4H-1,4-benzothiazin-3-one] | > 300 µM
N#CC1C(=N)OC2=C(C(=O)CCC2)[C@]12C(=O)N(CC(N)=O)c1ccccc12 (stereo partly drawn) [2-[(4R)-2-amino-3-cyano-2',5-diketo-spiro[7,8-dihydro-6H-chromene-4,3'-indoline]-1'-yl]acetamide] | > 300 µM
O=C1NC(=O)N(c2cccc(F)c2)C(=O)C1=Cc1c[nH]c2ccccc12 | > 300 µM
O=C(Cc1nc2cc(Cl)ccc2oc1=O)c1cccs1 [(3Z)-6-chloranyl-3-(2-oxidanylidene-2-thiophen-2-yl-ethylidene)-4H-1,4-benzoxazin-2-one] | 230 µM
Cc1nnc(N2C(=O)C(=O)C(C(=O)c3ccco3)C2c2cccc3ccccc23)s1 (stereo not given) [3-(furan-2-carbonyl)-4-hydroxy-1-(5-methyl-1,3,4-thiadiazol-2-yl)-2-naphthalen-1-yl-2H-pyrrol-5-one] | > 300 µM
O=C1NC(=O)N(CCc2ccc(F)cc2)C(=O)C1=CNCCCn1ccnc1 [(5E)-1-[2-(4-fluorophenyl)ethyl]-5-[(3-imidazol-1-ylpropylamino)methylene]barbituric acid] | > 300 µM
COc1ccc(C2C3=C(CC(C)(C)CC3=O)OC(=N)C2C#N)c(OC)c1OC (stereo not given) [2-amino-5-keto-7,7-dimethyl-4-(2,3,4-trimethoxyphenyl)-6,8-dihydro-4H-chromene-3-carbonitrile] | > 300 µM
Cc1ccc(C2C3CN(C(C)C)CCC3=C(C#N)C(=N)C2(C#N)C#N)cc1 (stereo not given) [SMR000034220] | 7.15 µM
Clc1ccc(C2=Nc3ncnn3C(c3ccco3)C2)cc1 (stereo not given) | 24.7 µM
